Reference: BigSolDB 2.1

O=C(Nc1ccc(Cl)cc1)Nc1ccc(Cl)c(Cl)c1
solubility (mole fraction)
Conditions	288.15 K	293.15 K	298.15 K	303.15 K	308.15 K	313.15 K	318.15 K
in ethylene glycol	4.25e-06	5.89e-06	8.3e-06	1.02e-05	1.38e-05	2.14e-05	2.64e-05
in water	1.96e-09	2.38e-09	2.85e-09	3.78e-09	5.72e-09	7.48e-09	9.28e-09
